These results are taken from patent publication US9694073B2, “Small molecule inhibitors of polynucleotide kinase/phosphatase, poly(ADP-ribose) polymerase and uses thereof” (THE GOVERNORS OF THE UNIVERSITY OF ALBERTA, priority 2009, dated 2017).

Each structure is given as a SMILES string. “Also recorded” adds a separate entry of the source. Starred links: 1 amine or outer side, 2 acyl side, 3 side chain; linkers in the order of their positions; H or OH if unused. Positions of bridges follow the written chain, without caps; N, C: chain ends. Non-standard residues stand in square brackets, D forms with d. Residues, ends and D or L forms follow the SMILES beside them. Adda = CO[C@@H](Cc1ccccc1)[C@@H](C)/C=C(C)/C=C/[C@H](N[*:1])[C@H](C)C(=O)[*:2]; dAsp(3S-Me) = C[C@H](C(=O)[*:3])[C@@H](N[*:1])C(=O)[*:2]; d(γGlu) = O=C(O)[C@@H](CCC(=O)[*:2])N[*:1]; NMeDha = C=C(NC)C(=O)O

Experiment [1] has as its target T1, human PNKP (hPNKP) 3'-phosphatase activity (Homo sapiens, UniProt Q96T60).
T1 construct: made in house; host or cells: bacteria (said only for the batch compared with aprataxin)
The experiment in a line: Fluorescence quenching-based screening assay for PNKP 3'-phosphatase activity. The class given is biochemical. The conditions noted are these: 100 μM compound, 50 ng hPNKP. On the procedure:
The […] assay developed originally for protein kinases by QTL Biosystems (Santa Fe, N. Mex.) was modified. […] The TAMRA-labelled oligonucleotide lacking a 3'-phosphate served as a control. […] The assay was performed in 384-well white Optiplate microplates (PerkinElmer, Woodbridge, ON) in 70 mM Tris-HCl, pH 7.4, 60 mM MgCl2, 5 mM MnCl2, 0.3% BSA, 0.09% sodium azide. Reaction buffer was prepared by adding 1 mM DTT immediately prior to use. Five μL of 3'-phosphatase substrate (final concentration 0.5 μM) was used per well. In duplicate, 10 μl of each concentration of hPNKP was added per well. Plates were incubated for 1 hour at 37° C. and then 15 μl of 1× sensor solution (provided by QTL) was added to each well and incubated for 30 minutes at room temperature. Fluorescence (485 nm excitation and 520 nm emission wavelengths) of each well was read in a FLUOstar Optima® (BMG Labtech Inc, Durham, N.C.). Data were analyzed using GraphPad Prism® Software (San Diego, Calif.). […] Small molecules were provided in powder form and were dissolved in 100% DMSO and a final concentration of 100 μM was added to each well and assays were performed as described above. After obtaining an optimum calibration curve and enzyme concentration curve, a simplified form of the assay to test the library in a short time, was employed. One concentration of hPNKP, 50 ng, was tested and compared with the control well with no enzyme. The assay was conducted in the same way as described above with respect to oligonucleotides, buffer, controls, incubation lengths/temperatures, centrifugations and sensor addition. The fluorescence-based phosphatase assay adapted was originally developed to monitor protein phosphatase activity (34). This assay involves a fluorescent sensor molecule coated in trivalent metal cations which causes superquenching of the sensor signal when in close proximity to a dye (TAMRA) on the substrate. The sensor is brought close to TAMRA via the ionic bond formed between the terminal DNA phosphate and the trivalent metal cations on the sensor. Removal of the phosphate leads to an elevation of fluorescence because the sensor is not brought close enough to TAMRA for its signal to be quenched. […] Heat inactivated hPNKP was used as a control.

Experiment [2] has as its target T2, hPNKP 3'-phosphatase activity (Homo sapiens, UniProt Q96T60).
T2 construct: made in house; host or cells: bacteria (said only for the batch compared with aprataxin)
The experiment in a line: Conventional radio-gel assay for hPNKP 3'-phosphatase activity. Type of experiment: biochemical.

The next experiment addresses T3, PP-1cγ (Homo sapiens, UniProt P36873).
T3 construct: made in house; host or cells: E. coli
The experiment in a line: PP-1cγ pNPP phosphatase assay. The class given is biochemical. On the procedure:
PP-1cγ and calcineurin activity was analyzed, using a colorimetric p-nitrophenol phosphate (pNPP) assay as previously described (33). The reaction were carried out in a 96-well microplate with a final volume of 60 μl containing 40 μl of pNPP assay buffer (50 mM Tris, pH 7.4, 0.1 mM EDTA, 30 mM MgCl2, 0.5 mM MnCl2, 1 mg/ml BSA, 0.2% β-mercaptoethanol), 0.03 μg PP-1cγ (specific activity>30 units per mg) or a catalytically equivalent quantity of calcineurin and 10 μl of 0.5 mM DNA 3′-phosphatase inhibitor sample in DMSO or 10 μl of 50 μM A12B4C3 sample in DMSO, or control solvent. After a 10-minute incubation at 37° C., 10 μl of 30 mM pNPP was added to each well and incubated for an additional of 60 minutes and 45 minutes for PP-1cγ and calcineurin, respectively.

The subject of experiment [3] is A549-VO vector only control cells.
Experiment [4] deals with M059J cells (DNA-PKcs negative). Type of experiment: cell-based, human.

T3 sequence (P36873 whole entry): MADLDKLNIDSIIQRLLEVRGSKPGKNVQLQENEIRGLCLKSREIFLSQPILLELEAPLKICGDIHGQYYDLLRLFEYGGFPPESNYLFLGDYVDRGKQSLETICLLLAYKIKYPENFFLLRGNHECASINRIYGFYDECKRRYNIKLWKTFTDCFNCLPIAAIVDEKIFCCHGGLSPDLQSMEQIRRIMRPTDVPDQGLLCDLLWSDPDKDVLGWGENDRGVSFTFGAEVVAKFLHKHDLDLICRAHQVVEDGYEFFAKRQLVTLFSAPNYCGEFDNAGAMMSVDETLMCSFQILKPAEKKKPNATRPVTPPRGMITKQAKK

On to `CN1C(=O)C2C=CC(C(O)C(c3ccccc3)c3ccccc3)N(NC(=O)OC(C)(C)C)C2C1=O` (stereo not drawn) [Compound A26B11C2, tert-butyl 2-(1-hydroxy-2,2-diphenylethyl)-6-methyl-5,7-dioxo-2,4a,5,6,7,7a-hexahydro-1H-pyrrolo[3,4-b]pyridin-1-ylcarbamate], for which the “inhibition of hPNKP phosphatase activity (substrate dephosphorylation) in the screening assay” value (“inhibition … in the screening assay” below) in experiment [1] is “significant inhibition; also recorded: marked inhibition”. The “inhibition of hPNKP phosphatase activity, radio-gel assay” value (shortened to “inhibition … radio-gel assay”) in experiment [2] is “inhibited”. On to `CN1C(=O)C2C=CC(C(O)c3cccs3)N(Nc3ccccc3)C2C1=O` (stereo not drawn) [Compound A39B1C2, 2-(hydroxy(thiophen-2-yl)methyl)-6-methyl-1-(phenylamino)-6,7a-dihydro-1H-pyrrolo[3,4-b]pyridine-5,7(2H,4aH)-dione], for which the “inhibition … in the screening assay” value in experiment [1] was “significant inhibition; also recorded: marked inhibition”. The “inhibition … radio-gel assay” value in experiment [2] is on record as “inhibited”.

`C=C1C(=O)N[C@H](C)C(=O)N[C@@H](CC(C)C)C(=O)N[C@@H](C(=O)O)[C@H](C)C(=O)N[C@@H](CCCNC(=N)N)C(=O)N[C@@H](/C=C/C(C)=C/[C@H](C)[C@H](Cc2ccccc2)OC)[C@H](C)C(=O)N[C@@H](C(=O)O)CCC(=O)N1C` [microcystin LR, reference compound] (R[Adda][d(γGlu)][NMeDha][dA]L[dAsp(3S-Me)]-OH; lactam N-7): the “reduction of the activity of PP1” value on PP-1cγ is recorded as about 65%. Regarding `O=C1NCCc2c(OCCCCN3CCCCC3)cccc21` [DPQ, 3,4-dihydro-5[4-(1-piperindinyl)butoxy]-1(2H)-isoquinoline], the “cell survival of control cells (A549-VO)” value in experiment [3] is recorded as “no such relationship”. Besides, in experiment [4], the “cell survival of M059J cells” value is “reduced survival”. As for `O=C1C2C=CC(C(O)c3ccccc3)N(Nc3ccc([N+](=O)[O-])cc3)C2C(=O)N1c1ccccc1` (stereo not drawn) [Compound A1B4C3, 2-(hydroxy(phenyl)methyl)-1-(4-nitrophenylamino)-6-phenyl-6,7a-dihydro-1H-pyrrolo[3,4-b]pyridine-5,7(2H,4aH)-dione], the “inhibition … in the screening assay” value in experiment [1] is on record as “significant inhibition; also recorded: marked inhibition”. Besides, the “inhibition … radio-gel assay” value in experiment [2] is listed as “inhibited”.
